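Assay format: 96-well plates, 48-hour exposure. Here, GI50 denotes the concentration required for 50% inhibition of growth.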 The source made the active and inactive calls. Cut-off read from the data, not from the text of the source: active = GI50 up to about 1.1 µM and inactive = higher.
What was measured:
Assay in all cases: DTP human tumour cell line panel, 48 h
[1] = test system: HOP-18
[2] = test system: SNB-75
[3] = test system: MOLT-4
[4] = test system: SF-268
[5] = test system: ACHN
[6] = test system: K562
[7] = test system: IGROV-1
[8] = test system: SK-MEL-28
[9] = test system: CCRF-CEM
[10] = test system: HCT-15
[11] = test system: M19-MEL
[12] = test system: A498
[13] = test system: CAKI-1
[14] = test system: SW-620
[15] = test system: DMS-114
[16] = test system: HCC 2998
[17] = test system: DMS-273
[18] = test system: Malme-3M
[19] = test system: SK-MEL-5
[20] = test system: 786-0
[21] = test system: A549
[22] = test system: SNB-19
[23] = test system: HOP-62
[24] = test system: UACC-62
[25] = test system: HT-29
[26] = test system: HCT-116
[27] = test system: OVCAR-8
[28] = test system: XF498
[29] = test system: HOP-92
[30] = test system: U-251
[31] = test system: SNB-78
[32] = test system: OVCAR-3
[33] = test system: KM-20L2
[34] = test system: RPMI-8226
[35] = test system: EKVX
[36] = test system: SN12C
[37] = test system: SF-539
[38] = test system: COLO 205
[39] = test system: OVCAR-4
[40] = test system: TK-10
[41] = test system: LXFL 529
[42] = test system: NCI-H460
[43] = test system: HL-60
[44] = test system: KM12
[45] = test system: M14
[46] = test system: NCI-H522
[47] = test system: SK-MEL-2
[48] = test system: LOX IMVI
[49] = test system: SK-OV-3
[50] = test system: UACC-257
[51] = test system: UO-31
[52] = test system: RXF 393
[53] = test system: NCI-H23
[54] = test system: DLD-1
[55] = test system: SR
[56] = test system: OVCAR-5
[57] = test system: SF-295
[58] = test system: NCI-H226

NC(=O)c1ccccc1[N+](=O)[O-]
GI50 [1]: > 100 µM (inactive) | GI50 [2]: > 100 µM (inactive) | GI50 [3]: > 100 µM (inactive) | GI50 [4]: > 100 µM (inactive) | GI50 [5]: > 100 µM (inactive) | GI50 [6]: > 100 µM (inactive) | GI50 [7]: > 100 µM (inactive) | GI50 [8]: > 100 µM (inactive) | GI50 [9]: > 10 µM (inactive) | GI50 [10]: > 100 µM | GI50 [11]: > 100 µM (inactive) | GI50 [12]: > 100 µM (inactive) | GI50 [13]: > 100 µM (inactive) | GI50 [14]: > 100 µM (inactive) | GI50 [15]: > 100 µM (inactive) | GI50 [16]: > 100 µM (inactive) | GI50 [17]: > 100 µM (inactive) | GI50 [18]: > 100 µM (inactive) | GI50 [19]: > 100 µM (inactive) | GI50 [20]: > 100 µM (inactive) | GI50 [21]: > 100 µM (inactive) | GI50 [22]: > 100 µM (inactive) | GI50 [23]: > 100 µM (inactive) | GI50 [24]: > 100 µM (inactive) | GI50 [25]: > 100 µM (inactive) | GI50 [26]: > 100 µM (inactive) | GI50 [27]: > 100 µM (inactive) | GI50 [28]: > 100 µM (inactive) | GI50 [29]: > 100 µM (inactive) | GI50 [30]: > 100 µM (inactive) | GI50 [31]: > 100 µM (inactive) | GI50 [32]: > 100 µM (inactive) | GI50 [33]: > 100 µM (inactive) | GI50 [34]: > 100 µM (inactive) | GI50 [35]: > 100 µM (inactive) | GI50 [36]: > 100 µM (inactive) | GI50 [37]: > 100 µM (inactive) | GI50 [38]: > 100 µM (inactive)

CCOc1ncnc2ccc(Cl)c(I)c12
GI50 [39]: 56.6 µM (inactive) | GI50 [40]: 62.7 µM (inactive) | GI50 [4]: 31.2 µM (inactive) | GI50 [5]: 33.6 µM (inactive) | GI50 [6]: 88.7 µM (inactive) | GI50 [41]: 81.1 µM (inactive) | GI50 [7]: 38.7 µM (inactive) | GI50 [42]: 80.7 µM (inactive) | GI50 [43]: 38.8 µM (inactive) | GI50 [8]: > 100 µM (inactive) | GI50 [44]: 91 µM (inactive) | GI50 [9]: 70.6 µM (inactive) | GI50 [45]: 75.2 µM (inactive) | GI50 [10]: > 100 µM | GI50 [11]: > 100 µM (inactive) | GI50 [12]: 31 µM (inactive) | GI50 [46]: > 10 µM (inactive) | GI50 [13]: 22.6 µM (inactive) | GI50 [14]: > 100 µM (inactive) | GI50 [15]: 45.1 µM (inactive) | GI50 [16]: > 100 µM (inactive) | GI50 [17]: > 100 µM (inactive) | GI50 [47]: 53.1 µM (inactive) | GI50 [18]: > 100 µM (inactive) | GI50 [48]: 49.4 µM (inactive) | GI50 [49]: 36.4 µM (inactive) | GI50 [19]: 59.8 µM (inactive) | GI50 [20]: 87.9 µM (inactive) | GI50 [21]: 75.7 µM (inactive) | GI50 [22]: 89.1 µM (inactive) | GI50 [50]: > 100 µM (inactive) | GI50 [23]: > 100 µM (inactive) | GI50 [24]: 46.5 µM (inactive) | GI50 [25]: > 100 µM (inactive) | GI50 [26]: 82.2 µM (inactive) | GI50 [27]: > 100 µM (inactive) | GI50 [28]: 45.4 µM (inactive) | GI50 [51]: 27.7 µM (inactive) | GI50 [30]: > 100 µM (inactive) | GI50 [52]: 15 µM (inactive) | GI50 [53]: 79.1 µM (inactive) | GI50 [54]: 99.1 µM (inactive) | GI50 [55]: 47.2 µM (inactive) | GI50 [56]: > 100 µM (inactive) | GI50 [32]: > 100 µM (inactive) | GI50 [33]: > 100 µM (inactive) | GI50 [34]: 29.5 µM (inactive) | GI50 [35]: 11.2 µM (inactive) | GI50 [36]: 67.5 µM (inactive) | GI50 [57]: > 100 µM (inactive) | GI50 [38]: > 100 µM (inactive)

C=CCC1(C(=O)OC(C)(C)C)C(OC)=C(C(=O)OC(C)(C)C)C2C1C(C(=O)OC(C)(C)C)=C(OC)C2(CC=C)C(=O)OC(C)(C)C (stereo not drawn)
GI50 [1]: > 100 µM (inactive) | GI50 [2]: > 100 µM (inactive) | GI50 [3]: > 100 µM (inactive) | GI50 [40]: 64.6 µM (inactive) | GI50 [4]: > 100 µM (inactive) | GI50 [5]: > 100 µM (inactive) | GI50 [6]: > 100 µM (inactive) | GI50 [7]: > 100 µM (inactive) | GI50 [43]: > 100 µM (inactive) | GI50 [8]: > 100 µM (inactive) | GI50 [44]: > 100 µM (inactive) | GI50 [9]: > 100 µM (inactive) | GI50 [45]: > 100 µM (inactive) | GI50 [10]: > 100 µM | GI50 [11]: > 100 µM (inactive) | GI50 [46]: > 100 µM (inactive) | GI50 [14]: > 100 µM (inactive) | GI50 [15]: > 100 µM (inactive) | GI50 [16]: > 100 µM (inactive) | GI50 [47]: > 100 µM (inactive) | GI50 [18]: > 10 µM (inactive) | GI50 [49]: > 100 µM (inactive) | GI50 [20]: > 100 µM (inactive) | GI50 [58]: > 100 µM (inactive) | GI50 [21]: > 100 µM (inactive) | GI50 [22]: > 100 µM (inactive) | GI50 [50]: > 100 µM (inactive) | GI50 [24]: > 100 µM (inactive) | GI50 [27]: > 100 µM (inactive) | GI50 [28]: > 100 µM (inactive) | GI50 [51]: > 100 µM (inactive) | GI50 [29]: > 100 µM (inactive) | GI50 [52]: > 100 µM (inactive) | GI50 [53]: > 100 µM (inactive) | GI50 [54]: > 100 µM (inactive) | GI50 [55]: > 100 µM (inactive) | GI50 [56]: > 100 µM (inactive) | GI50 [32]: > 100 µM (inactive) | GI50 [34]: > 100 µM (inactive) | GI50 [35]: > 100 µM (inactive) | GI50 [36]: > 100 µM (inactive) | GI50 [57]: > 100 µM (inactive) | GI50 [37]: > 100 µM (inactive) | GI50 [38]: > 100 µM (inactive)
